The text below walks through data of patent US20200247808A1, “Heterocyclic Tec-Family Kinase Inhibitors” (GB005, Inc., priority 2015, published 2020).

Read-outs that look alike come from different tables or passages of the source.

Series [1] has as its system immune complex mediated vasculitis. The series is described as follows: Mouse Arthus (immune complex mediated acute vasculitis). Particulars: mice; for Suppression of immune complex mediated vasculitis: oral gavage 10 mg/kg, 1 h pre-treatment, Evan's blue extravasation at 4 h. It counts as in vivo, mouse (Balb/c). The procedure: Formation and reaction to immune complexes is characteristic of antibody mediated autoimmune and inflammatory disease. BTK is important in signaling pathways downstream of Fc receptor stimulation which can be modeled by immune complex mediated acute vasculitis. Mouse studies were conducted as reported in Braselmann S, et al. J Pharmacol Exp Ther, 2006, 319:998-1008.
In summary, female Balb/c mice (6-7 weeks on arrival) were habituated to the animal facility for at least 4 days. On the day of the experiment, animals were pre-treated (t=minus 1 h) with compound or vehicle alone by gavage (PO). At t=0, animals were injected intravenously (IV; 0.1 mL/mouse) with saline containing chicken ovalbumin and Evan's blue (10 mg/mL of each). Ten minutes later (t=10 min), animals were anesthesized with isoflurane, the dorsal surface was shaved and rabbit anti-chicken ovalbumin antibody was then injected intradermally at one site on the right side of the animal (25 μg in 30 μL). The same amount of isotype control antibody was then injected on the left side.
The animals were then returned to their home cage and skin punches (8 mm) were collected from each injection site four hours later. The samples were placed in 1 mL formamide overnight at 80° C. (1 skin biopsy per 1 mL formamide in a glass tube). The amount of Evan's blue in the formamide solution was then assessed by spectrophotometry (630 nm) as a measure of serum extravasation into the dermis.

The subject of series [2] is TMD-8 human activated B cell diffuse large B cell lymphoma cells. The experiment in a line: TMD-8 survival assay (Cell Titer-Glo). It counts as cell-based. The note with it: TMD8, TMD-8 cells, 72 h. The procedure: TMD-8 human activated B cell diffuse large B cell lymphoma cells were seeded in 96-well plates at a density of 20,000 cells/well in HyClone RPMI supplemented with 10% FBS (Fisher)/1% Penicillin/Streptomycin (HyClone) and incubated at 37° C., 5% CO2. Cells were treated in triplicate with 1,000 nM or 100 nM curves of compounds for 72h. Cell survival was measured by Cell Titer-Glo Luminescent Assay (Promega). EC50 values (50% proliferation in the presence of compound as compared to vehicle treated controls) were calculated from dose response compound curves using GraphPad Prism Software.

Another series deals with T1, human BTK (Homo sapiens, UniProt Q06187).
T1 construct: purchased Eurofins Pharma Discovery Services UK Limited (contract assay, KinaseProfiler)
T1 sequence (Q06187 whole entry): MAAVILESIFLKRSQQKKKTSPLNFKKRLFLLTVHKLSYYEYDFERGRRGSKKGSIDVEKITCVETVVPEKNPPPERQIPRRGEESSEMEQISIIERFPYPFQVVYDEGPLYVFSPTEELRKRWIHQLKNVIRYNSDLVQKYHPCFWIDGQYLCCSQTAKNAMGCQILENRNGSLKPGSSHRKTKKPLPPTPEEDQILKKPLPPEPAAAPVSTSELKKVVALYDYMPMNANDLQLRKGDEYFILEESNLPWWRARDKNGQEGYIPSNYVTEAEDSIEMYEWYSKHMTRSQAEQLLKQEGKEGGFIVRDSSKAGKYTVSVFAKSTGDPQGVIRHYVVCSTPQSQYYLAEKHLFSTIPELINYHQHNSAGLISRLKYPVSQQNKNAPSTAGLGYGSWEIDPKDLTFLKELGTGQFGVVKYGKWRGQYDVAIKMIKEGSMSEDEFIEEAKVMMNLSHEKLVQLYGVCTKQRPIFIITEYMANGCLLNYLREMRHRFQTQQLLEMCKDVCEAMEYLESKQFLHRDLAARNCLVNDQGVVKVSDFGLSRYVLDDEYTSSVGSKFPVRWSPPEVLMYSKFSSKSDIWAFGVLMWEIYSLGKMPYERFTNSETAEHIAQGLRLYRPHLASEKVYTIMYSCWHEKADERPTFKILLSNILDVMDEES
The series is described as follows: BTK kinase inhibition, KinaseProfiler radiometric protein kinase assay (Eurofins). In kind it is biochemical. On the procedure: In vitro potency of selected compound was defined against human BTK, EGFR, and ErbB2 kinases using Kinase Profiler radiometric protein kinase assays performed at Eurofins Pharma Discovery Services UK Limited.
Each kinase is diluted in buffer and all compounds were prepared to 50x final assay concentration in 100% DMSO. This working stock of the compound was added to the assay well as the first component in the reaction, followed by the remaining components as detailed in the assay protocol listed above. The reaction was initiated by the addition of the MgATP mix. […] (specific activity approx. 500 cpm/pmol, concentration as required) and variable test article concentrations. […] The reaction was stopped by the addition of 3% phosphoric acid solution. 10 μL of the reaction is then spotted onto a P30 filtermat and washed three times for 5 minutes in 75 mM phosphoric acid and once in methanol prior to drying and scintillation counting. In addition positive control wells contain all components of the reaction, except the compound of interest; however, DMSO (at a final concentration of 2%) were included in these wells to control for solvent effects as well as blank wells contain all components of the reaction, with a reference inhibitor replacing the compound of interest. This abolishes kinase activity and establishes the base-line (0% kinase activity remaining). The potency of each compound was reported by estimating the EC50.

Series [3] is described as follows: Mouse plasma pharmacokinetics. The note with it: male, CD-1, mouse, mice; for AUC / Cmax: free base; for bioavailability: oral 10 mg/kg vs intravenous 3 mg/kg. In kind it is in vivo, mouse (CD-1). The procedure:
Plasma pharmacokinetic studies were conducted in CD1 mice to compare the plasma exposure following oral and intravenous administration of the free-base form of each compound to mice and to calculate bioavailability. Male CD-1 mice (25-30 g on delivery; Charles River) were used for mouse PK studies. The mice were housed 3 per cage in a room under controlled conditions of temperature ([…]) and humidity (40-70%), with a 12 h dark/light cycle. The animals were acclimated for a minimum of 3 days prior to use and received standard rodent chow (Charles River) and municipal tap water ad libitum. Nine animals were used per study, they were dosed PO or IV and bled from the mandibular vein, 2 to 3 times per animal at the following time points; pre dose, 15 and 30 min, 1, 2, 3, 5, 7 and 24 h (0.1 mL whole blood /time point; composite PK). Blood was collected into microvette K3E tubes ([…]) at RT and then centrifuged at 5,000 RPM for 2 min at 4° C. in order to separate plasma. Isolated plasma (0.015 mL/time point) was pipetted into 96 well plates (Canadian Life Science) which were stored at minus 20° C. until analysis (2 duplicate plates per study).
Concentrations of compound in rodent plasma samples were determined by LC-MS-MS. Two standard curves containing 8 points each were prepared by spiking in methanol or plasma with a solution containing the test article at a defined concentration. The range of final compound concentration in the standard curve was 0 to 1 μg/mL. Three sets of quality control (QC) samples in plasma at low, medium and high concentration within the standard curve range were also prepared. For analysis, the compound was extracted using protein precipitation extraction procedure. Briefly, a three-fold volume of methanol containing an internal standard was added to the plasma and standard curve solution samples and then incubated at 4° C. for 5 minutes. The plates were centrifuged for 30 minutes at 4° C. at 4000 rpm and the resulting supernatant was transferred to a 96-well propylene plates and sealed with cover to avoid sample evaporation. Ten μL aliquots of extracted samples were injected using a 96-well plate autosampler held at 4° C. onto a ACE C18 50×4.6 mm, 3 um HPLC column held at 30° C. Plasma derived parent compound was eluted using the following conditions: pump flow rate was set at 1 mL/min for a five minutes chromatographic method using a 3 min gradient elution from 20% solvent A (0.1% formic acid in water) and 80% solvent B (0.1% Formic Acid in Methanol) to 10% solvent A and 90% solvent B. The method was followed by 1 min column wash at 95% solvent B and 1 min column re-equilibration back to 80% solvent B. Under these conditions the compound was eluted after 1.8 minutes. For LC-MS-MS compound detection, the curtain gas was set at 10, collision gas was set at 8, ion spray voltage was set at 4500, temperature was set at 500, ion source gas 1 was set at 40 and ion source gas 2 was set at 60. Using a positive ionization mode, the MRM transition monitored was set at […]. Under these conditions, standard curves were linear up to 2000 ng/mL, the lower limit of quantification was generally at 10 ng/mL.
The area under the curve (AUCtot and AUClast), the maximum plasma concentration (Cmax) and time (Tmax), and terminal half life (T1/2), clearance and volume of distribution were calculated by regression analysis using Kinetica version 5.0 (Thermo Fisher Scientific) using a Non-Compartmental Extravascular/IV Bolus analysis model.

[4] abbreviates: intravenous 3 mg/kg, read-out: Intravenous AUC.
Where [5] appears, read: oral 10 mg/kg, read-out: Oral AUC.

For `CC#CC(=O)N[C@H]1C[C@@H](n2nc(-c3ccc(Oc4ccccc4)cc3)c3c(N)ncnc32)C1` [Compound 1], in series [1], the “Effect on immune complex-mediated vasculitis (FIG. 3, in words)” value is on record as “inhibit immune complex-mediated vasculitis” and the “Suppression of immune complex mediated vasculitis” value is 87%. In addition, a half-maximal effect in series [2] (EC50) was put at 1 nM. This molecule displayed an IC50 against human BTK of 3 nM. Further, the area under the curve (AUC) in series [3] (setting [4]) was found to be 841 ng·h/mL. In series [3], this molecule had a bioavailability of 52%. The molecule further yielded a Cmax in series [3] (oral 10 mg/kg) of 1280 ng/mL. Besides, the AUC in series [3] (setting [5]) was determined as 1450 ng·h/mL.
With `C=CC(=O)N[C@H]1C[C@@H](n2nc(-c3ccc(Oc4ccccc4)cc3)c3c(N)ncnc32)C1` [Compound 2], the “Effect on immune complex-mediated vasculitis (FIG. 3, in words)” value in series [1] was “inhibit immune complex-mediated vasculitis”. Further, the “Suppression of immune complex mediated vasculitis” value in series [1] is given as 94%. In series [2], this molecule registered a half-maximal effective concentration (EC50) of 1.9 nM. The molecule also yielded an IC50 against human BTK of 3 nM. For the same molecule, the results for the AUC in series [3] (setting [4]) and in series [3] (setting [5]) were 954 ng·h/mL and 1440 ng·h/mL, respectively. The bioavailability in series [3] turned out to be 45%. This molecule displayed a peak concentration (Cmax) in series [3] (oral 10 mg/kg) of 1350 ng/mL.
